# Columns and labels:
# Assay type in all cases: in vivo
# [1] = system: Echinochloa crus-galli (L.) P. Beauv. var. formosensis Ohwi; experiment: Test for Herbicidal Effect in Flooding Treatment (#2), ECHDG at 2-2.5 leaf stage; conditions: for ECHDG (2-2.5L) #2 herbicidal effect (growth inhibition grade): flooding treatment at 2-2.5 leaf stage, dose 0.2 kg/ha, visual observation on day 21; for ECHDG (2-2.5L) #2 herbicidal effect (growth inhibition rating 0-5): flooding treatment #2, 2-2.5 leaf stage
# Protocol: (#2) Test for Herbicidal Effect in Flooding Treatment: Styrol cups each having an opening diameter of 13 cm (about 130 cm^2) were respectively filled with muddy soil (500 ml). Water (about 300 ml) was mixed with the soil such that the soil was flooded. After the soil stood still for 24 hours, Echinochloa crus-galli (L.) P. Beauv. var. formosensis Ohwi was seeded. When the Echinochloa crus-galli (L.) P. Beauv. var. formosensis Ohwi grew to reach 2-2.5 leaf stage, chemical solutions were dropped on the entire surface of treatment sections, so that each section is treated with 1 ml of the respective chemical solution (a dose of 0.2 kg/ha). Each of the chemical solutions was prepared by dissolving associated one of the compounds of the present invention in acetone, followed by dilution with water containing Tween 80 g. After the treatment, the plants were grown in a glasshouse. On day 21, a survey was conducted on the herbicidal activity by visual observation, and evaluation was made according to the following criteria. 0: Growth inhibition effect is less than 10%. 1: Growth inhibition effect is equal to or greater than 10%, and less than 30%. 2; Growth inhibition effect is equal to or greater than 30%, and less than 50%. 3: Growth inhibition effect equal to or greater than 50%, and less than 70%. 4: Growth inhibition effect is equal to or greater than 70%, and less than 90%. 5: Growth inhibition effect is equal to or greater than 90%, or complete withering is achieved. ECHDG=Echinochloa crus-galli (L.) P. Beauv. var. formosensis Ohwi, MONVA=Monochoria vaginalis, SCIJU=Scirpus juncoides, CYMIC=Cyperus microiria. The herbicidal activity of the following comparative compounds A and B (the compounds disclosed Japanese Unexamined Patent Publication No. 2003-096059) were evaluated in a manner pursuant to Test Example 1. (#2).
# Scirpus juncoides = experiment: Test for Herbicidal Effect in Flooding Treatment (#1), SCIJU; conditions: for SCIJU #1 herbicidal effect (growth inhibition grade): flooding treatment at seeding, dose 2 kg/ha, visual observation on day 21; for SCIJU #1 herbicidal effect (growth inhibition rating 0-5): flooding treatment #1
# Protocol: (§1) (#1) Test for Herbicidal Effect in Flooding Treatment: Styrol cups each having an opening diameter of 8 cm (about 52 cm^2) were respectively filled with soil (45 ml) which had been passed through a sieve (2 mm). Water (about 115 ml) was mixed with the soil such that the soil was flooded. After the soil stood still for 24 hours, Monochoria vaginalis, Echinochloa crus-galli (L.) P. Beauv. var. formosensis Ohwi, Cyperus difformis (umbrella sedge), and Scirpus juncoides were seeded. Each of the compounds of the present invention was dissolved in acetone, and the obtained product was then diluted with water containing Tween 80®. Each of the resultant chemical solutions was dropped on the entire surface of an associated one of treatment sections, so that each section was treated with 1 ml of the respective chemical solution (a dose of 2 kg/ha). After the treatment, the plants were grown in a glasshouse. On day 21, a survey was conducted on the herbicidal activity by visual observation, and evaluation was made according to the following criteria. 0: Growth inhibition effect is less than 10%. 1: Growth inhibition effect is equal to or greater than 10%, and less than 30%. 2; Growth inhibition effect is equal to or greater than 30%, and less than 50%. 3: Growth inhibition effect equal to or greater than 50%, and less than 70%. 4: Growth inhibition effect is equal to or greater than 70%, and less than 90%. 5: Growth inhibition effect is equal to or greater than 90%, or complete withering is achieved. ECHDG=Echinochloa crus-galli (L.) P. Beauv. var. formosensis Ohwi, MONVA=Monochoria vaginalis, SCIJU=Scirpus juncoides, CYMIC=Cyperus microiria.
# [2] = system: Echinochloa crus-galli (L.) P. Beauv. var. formosensis Ohwi; experiment: Test for Herbicidal Effect in Flooding Treatment (#1), ECHDG; conditions: for ECHDG #1 herbicidal effect (growth inhibition grade): flooding treatment at seeding, dose 2 kg/ha, visual observation on day 21; for ECHDG #1 herbicidal effect (growth inhibition rating 0-5): flooding treatment #1
# Protocol: as §1
Compound,ECHDG (2-2.5L) #2 herbicidal effect (growth inhibition grade) [1],SCIJU #1 herbicidal effect (growth inhibition grade) (Scirpus juncoides),ECHDG #1 herbicidal effect (growth inhibition grade) [2],ECHDG (2-2.5L) #2 herbicidal effect (growth inhibition rating 0-5) [1],SCIJU #1 herbicidal effect (growth inhibition rating 0-5) (Scirpus juncoides),ECHDG #1 herbicidal effect (growth inhibition rating 0-5) [2]
CC(c1c(F)cccc1OC(F)F)S(=O)(=O)c1ncc(Cl)s1 (racemic) [Compound 1C-140],"5 (Growth inhibition effect is equal to or greater than 90%, or complete withering is achieved)","5 (Growth inhibition effect is equal to or greater than 90%, or complete withering is achieved)","5 (Growth inhibition effect is equal to or greater than 90%, or complete withering is achieved)",–,–,–
[O-][S+](Cc1c(Cl)cccc1OC(F)F)c1ncc(Cl)s1 (stereo not shown) [Compound 1B-4],–,–,–,"5 (Growth inhibition effect is equal to or greater than 90%, or complete withering is achieved)","5 (Growth inhibition effect is equal to or greater than 90%, or complete withering is achieved)","5 (Growth inhibition effect is equal to or greater than 90%, or complete withering is achieved)"
[O-][S+](Cc1c(F)cccc1OC(F)(F)F)c1ncc(Cl)s1 (stereo not shown) [Compound 1B-5],–,–,–,"5 (Growth inhibition effect is equal to or greater than 90%, or complete withering is achieved)","5 (Growth inhibition effect is equal to or greater than 90%, or complete withering is achieved)","5 (Growth inhibition effect is equal to or greater than 90%, or complete withering is achieved)"
[O-][S+](Cc1c(Cl)cccc1OC(F)(F)F)c1ncc(Cl)s1 (stereo not shown) [Compound 1B-6],–,–,–,"5 (Growth inhibition effect is equal to or greater than 90%, or complete withering is achieved)","5 (Growth inhibition effect is equal to or greater than 90%, or complete withering is achieved)","5 (Growth inhibition effect is equal to or greater than 90%, or complete withering is achieved)"
[O-][S+](Cc1c(OCC(F)(F)F)cccc1C(F)(F)F)c1ncc(Cl)s1 (stereo not shown) [Compound 1B-11],–,–,–,"5 (Growth inhibition effect is equal to or greater than 90%, or complete withering is achieved)","5 (Growth inhibition effect is equal to or greater than 90%, or complete withering is achieved)","5 (Growth inhibition effect is equal to or greater than 90%, or complete withering is achieved)"
[O-][S+](Cc1ccccc1OC(F)F)c1ncc(Br)s1 (stereo not shown) [Compound 1B-18],–,–,–,"5 (Growth inhibition effect is equal to or greater than 90%, or complete withering is achieved)","5 (Growth inhibition effect is equal to or greater than 90%, or complete withering is achieved)","5 (Growth inhibition effect is equal to or greater than 90%, or complete withering is achieved)"
[O-][S+](Cc1c(F)cccc1OC(F)(F)F)c1ncc(Br)s1 (stereo not shown) [Compound 1B-21],–,–,–,"5 (Growth inhibition effect is equal to or greater than 90%, or complete withering is achieved)","5 (Growth inhibition effect is equal to or greater than 90%, or complete withering is achieved)","5 (Growth inhibition effect is equal to or greater than 90%, or complete withering is achieved)"
[O-][S+](Cc1c(Cl)cccc1OC(F)(F)F)c1ncc(Br)s1 (stereo not shown) [Compound 1B-22],–,–,–,"5 (Growth inhibition effect is equal to or greater than 90%, or complete withering is achieved)","5 (Growth inhibition effect is equal to or greater than 90%, or complete withering is achieved)",–
[O-][S+](Cc1ccccc1OC(F)(F)C(F)F)c1ncc(Br)s1 (stereo not shown) [Compound 1B-23],–,–,–,"4 (Growth inhibition effect is equal to or greater than 70%, and less than 90%)",–,"5 (Growth inhibition effect is equal to or greater than 90%, or complete withering is achieved)"
[O-][S+](Cc1c(OC(F)(F)C(F)(F)F)cccc1C(F)(F)F)c1ncc(Br)s1 (stereo not shown) [Compound 1B-25],–,–,–,"5 (Growth inhibition effect is equal to or greater than 90%, or complete withering is achieved)","5 (Growth inhibition effect is equal to or greater than 90%, or complete withering is achieved)","5 (Growth inhibition effect is equal to or greater than 90%, or complete withering is achieved)"
CCS(=O)(=O)c1cccc(F)c1C[S+]([O-])c1ncc(Cl)s1 (stereo not shown) [Compound 1B-28],–,–,–,–,"4 (Growth inhibition effect is equal to or greater than 70%, and less than 90%)","5 (Growth inhibition effect is equal to or greater than 90%, or complete withering is achieved)"
COc1ccc(CS(=O)(=O)c2ncc(Cl)s2)c(F)c1 [Compound 1C-1],–,"4 (Growth inhibition effect is equal to or greater than 70%, and less than 90%)","5 (Growth inhibition effect is equal to or greater than 90%, or complete withering is achieved)",–,–,–
O=S(=O)(Cc1ccc(F)c(Oc2ccccc2)c1)c1ncc(Cl)s1 [Compound 1C-86],"1 (Growth inhibition effect is equal to or greater than 10%, and less than 30%)",–,"5 (Growth inhibition effect is equal to or greater than 90%, or complete withering is achieved)",–,–,–
O=S(=O)(Cc1ccccc1OC(F)(F)C(F)F)c1ncc(Br)s1 [Compound 1C-163],–,"5 (Growth inhibition effect is equal to or greater than 90%, or complete withering is achieved)","5 (Growth inhibition effect is equal to or greater than 90%, or complete withering is achieved)",–,–,–
O=C(CCl)Oc1cccc(F)c1CS(=O)(=O)c1ncc(Cl)s1 [Compound 1C-173],–,"4 (Growth inhibition effect is equal to or greater than 70%, and less than 90%)",–,–,–,–
CC(C)(C)[Si](C)(C)Oc1cccc(F)c1CS(=O)(=O)c1ncc(Cl)s1 [Compound 1C-178],–,"4 (Growth inhibition effect is equal to or greater than 70%, and less than 90%)","5 (Growth inhibition effect is equal to or greater than 90%, or complete withering is achieved)",–,–,–
COC(=O)COc1cccc(F)c1CS(=O)(=O)c1ncc(Cl)s1 [Compound 1C-181],–,"4 (Growth inhibition effect is equal to or greater than 70%, and less than 90%)","5 (Growth inhibition effect is equal to or greater than 90%, or complete withering is achieved)",–,–,–
CCOC(=O)C(F)Oc1cccc(F)c1CS(=O)(=O)c1ncc(Cl)s1 (stereo not shown) [Compound 1C-182],–,"3 (Growth inhibition effect equal to or greater than 50%, and less than 70%)","5 (Growth inhibition effect is equal to or greater than 90%, or complete withering is achieved)",–,–,–

# From patent publication US20200060276A1, “THIAZOLE COMPOUND AND HERBICIDE” (OAT Agrio Co., Ltd., priority 2017, published 2020)
